Experimental data published in ChEMBL document CHEMBL1154064, “Synthesis and DNA cleavage activity of 2-hydrazinyl-1,4,5,6-tetrahydropyrimidine containing hydroxy group” (2009).
Activity calls are given as the source filed them. No cut-off for these calls is given here.

Assays:
Nucleic Acid [1] = experiment: Binding affinity to Escherichia coli pUC19 DNA assessed as form 2 DNA level at 0.349 mM after 11.33 hrs by agarose gel electrophoresis; type: nucleic-acid assay
Nucleic Acid [2] = experiment: Binding affinity to supercoiled Escherichia cloli pUC19 DNA assessed as formation of nicked circular DNA at 1.10 mM at pH 6.0 to 8.5 for 24 hrs by agarose gel electrophoresis; type: nucleic-acid assay; conditions: Escherichia coli
Nucleic Acid [3] = experiment: Binding affinity to Escherichia coli pUC19 DNA assessed as form 2 DNA level at 0.175 mM after 9.07 hrs by agarose gel electrophoresis; type: nucleic-acid assay
Nucleic Acid [4] = experiment: Binding affinity to Escherichia coli pUC19 DNA assessed as form 2 DNA level at 0.130 mM after 11.30 hrs by agarose gel electrophoresis; type: nucleic-acid assay
Nucleic Acid [5] = experiment: Binding affinity to Escherichia coli pUC19 DNA assessed as form 1 DNA level at 0.320 mM by agarose gel electrophoresis; type: nucleic-acid assay
Nucleic Acid [6] = experiment: Binding affinity to Escherichia coli pUC19 DNA assessed as form 2 DNA level at 0.320 mM after 9.07 hrs by agarose gel electrophoresis; type: nucleic-acid assay
Nucleic Acid [7] = experiment: Binding affinity to Escherichia coli pUC19 DNA assessed as form 1 DNA level at 0.320 mM after 29.33 hrs by agarose gel electrophoresis; type: nucleic-acid assay
Nucleic Acid [8] = experiment: Binding affinity to Escherichia coli pUC19 DNA assessed as form 1 DNA level at 0.463 mM after 29.33 hrs by agarose gel electrophoresis; type: nucleic-acid assay
Nucleic Acid [9] = experiment: Binding affinity to Escherichia coli pUC19 DNA assessed as form 1 DNA level at 0.349 mM after 26.15 hrs by agarose gel electrophoresis; type: nucleic-acid assay
Nucleic Acid [10] = experiment: Binding affinity to Escherichia coli pUC19 DNA assessed as form 1 DNA level at 0.175 mM after 13.07 hrs by agarose gel electrophoresis; type: nucleic-acid assay
Nucleic Acid [11] = experiment: Binding affinity to Escherichia coli pUC19 DNA assessed as form 1 DNA level at 0.463 mM after 31.48 hrs by agarose gel electrophoresis; type: nucleic-acid assay
Nucleic Acid [12] = experiment: Binding affinity to Escherichia coli pUC19 DNA assessed as form 1 DNA level at 0.698 mM after 12.13 hrs by agarose gel electrophoresis; type: nucleic-acid assay
Nucleic Acid [13] = experiment: Binding affinity to supercoiled Escherichia coli pUC19 DNA assessed as formation of nicked circular DNA at 1.10 mM at pH 6.0 for 24 hrs in presence of sodium azide by agarose gel electrophoresis; type: nucleic-acid assay
Nucleic Acid [14] = experiment: Binding affinity to Escherichia coli pUC19 DNA assessed as form 1 DNA level at 0.349 mM after 11.33 hrs by agarose gel electrophoresis; type: nucleic-acid assay
Nucleic Acid [15] = experiment: Binding affinity to Escherichia coli pUC19 DNA assessed as form 2 DNA level at 0.349 mM by agarose gel electrophoresis; type: nucleic-acid assay
Nucleic Acid [16] = experiment: Binding affinity to Escherichia coli pUC19 DNA assessed as form 1 DNA level at 0.698 mM after 6.42 hrs by agarose gel electrophoresis; type: nucleic-acid assay
Nucleic Acid [17] = experiment: Binding affinity to Escherichia coli pUC19 DNA assessed as form 1 DNA level at 0.320 mM after 23.12 hrs by agarose gel electrophoresis; type: nucleic-acid assay
Nucleic Acid [18] = experiment: Binding affinity to Escherichia coli pUC19 DNA assessed as form 1 DNA level at 0.698 mM after 3.72 hrs by agarose gel electrophoresis; type: nucleic-acid assay
Nucleic Acid [19] = experiment: Binding affinity to Escherichia coli pUC19 DNA assessed as form 2 DNA level at 0.262 mM after 26.15 hrs by agarose gel electrophoresis; type: nucleic-acid assay
Nucleic Acid [20] = experiment: Binding affinity to Escherichia coli pUC19 DNA assessed as form 2 DNA level at 0.698 mM after 8.45 hrs by agarose gel electrophoresis; type: nucleic-acid assay
Nucleic Acid [21] = experiment: Binding affinity to Escherichia coli pUC19 DNA assessed as form 2 DNA level at 0.175 mM after 25.35 hrs by agarose gel electrophoresis; type: nucleic-acid assay
Nucleic Acid [22] = experiment: Binding affinity to Escherichia coli pUC19 DNA assessed as form 1 DNA level at 0.175 mM after 25.35 hrs by agarose gel electrophoresis; type: nucleic-acid assay
Nucleic Acid [23] = experiment: Binding affinity to Escherichia coli pUC19 DNA assessed as form 2 DNA level at 0.463 mM after 25.35 hrs by agarose gel electrophoresis; type: nucleic-acid assay
Nucleic Acid [24] = experiment: Binding affinity to Escherichia coli pUC19 DNA assessed as form 2 DNA level at 0.698 mM after 3.72 hrs by agarose gel electrophoresis; type: nucleic-acid assay
Nucleic Acid [25] = experiment: Binding affinity to Escherichia coli pUC19 DNA assessed as form 1 DNA level at 0.349 mM after 23.02 hrs by agarose gel electrophoresis; type: nucleic-acid assay
Nucleic Acid [26] = experiment: Binding affinity to Escherichia coli pUC19 DNA assessed as form 2 DNA level at 0.320 mM after 27.33 hrs by agarose gel electrophoresis; type: nucleic-acid assay
Nucleic Acid [27] = experiment: Binding affinity to Escherichia coli pUC19 DNA assessed as form 1 DNA level at 0.262 mM by agarose gel electrophoresis; type: nucleic-acid assay
Nucleic Acid [28] = experiment: Binding affinity to Escherichia coli pUC19 DNA assessed as form 2 DNA level at 0.698 mM after 23.80 hrs by agarose gel electrophoresis; type: nucleic-acid assay
Nucleic Acid [29] = experiment: Binding affinity to Escherichia coli pUC19 DNA assessed as form 2 DNA level at 0.463 mM after 31.48 hrs by agarose gel electrophoresis; type: nucleic-acid assay
Nucleic Acid [30] = experiment: Binding affinity to Escherichia coli pUC19 DNA assessed as form 1 DNA level at 0.262 mM after 27.07 hrs by agarose gel electrophoresis; type: nucleic-acid assay
Nucleic Acid [31] = experiment: Binding affinity to Escherichia coli pUC19 DNA assessed as form 1 DNA level at 0.320 mM after 13.07 hrs by agarose gel electrophoresis; type: nucleic-acid assay
Nucleic Acid [32] = experiment: Binding affinity to Escherichia coli pUC19 DNA assessed as form 2 DNA level at 0.463 mM after 4.95 hrs by agarose gel electrophoresis; type: nucleic-acid assay
Nucleic Acid [33] = experiment: Binding affinity to Escherichia coli pUC19 DNA assessed as form 1 DNA level at 0.130 mM after 11.30 hrs by agarose gel electrophoresis; type: nucleic-acid assay
HeLa = experiment: Growth inhibition of human HeLa cells at 100 uM after 72 hrs by MTT assay; type: functional; set-up: scale not given: the % may be the effect or the level left
Nucleic Acid [34] = experiment: Binding affinity to Escherichia coli pUC19 DNA assessed as form 2 DNA level at 0.320 mM after 23.12 hrs by agarose gel electrophoresis; type: nucleic-acid assay
Nucleic Acid [35] = experiment: Binding affinity to Escherichia coli pUC19 DNA assessed as form 2 DNA level at 0.130 mM after 23.52 hrs by agarose gel electrophoresis; type: nucleic-acid assay
Nucleic Acid [36] = experiment: Binding affinity to Escherichia coli pUC19 DNA assessed as form 1 DNA level at 0.463 mM after 23.12 hrs by agarose gel electrophoresis; type: nucleic-acid assay
Nucleic Acid [37] = experiment: Binding affinity to Escherichia coli pUC19 DNA assessed as form 1 DNA level at 0.175 mM after 9.07 hrs by agarose gel electrophoresis; type: nucleic-acid assay
Nucleic Acid [38] = experiment: Binding affinity to Escherichia coli pUC19 DNA assessed as form 1 DNA level at 0.262 mM after 23.02 hrs by agarose gel electrophoresis; type: nucleic-acid assay
HL-60 = experiment: Growth inhibition of human HL60 cells at 10 uM after 72 hrs by MTT assay; type: functional; set-up: scale not given: the % may be the effect or the level left

Activity (Nucleic Acid [1]): 9.09%
Activity (Nucleic Acid [2]): Active
Activity (Nucleic Acid [3]): 6.09%
Activity (Nucleic Acid [4]): 21.8%
Activity (Nucleic Acid [5]): 98.2%
Activity (Nucleic Acid [6]): 91.7%
Activity (Nucleic Acid [7]): 59%
Activity (Nucleic Acid [8]): 57.8%
Activity (Nucleic Acid [9]): 68.5%
Activity (Nucleic Acid [10]): 90.8%
Activity (Nucleic Acid [11]): 51.1%
Activity (Nucleic Acid [12]): 77%
Activity (Nucleic Acid [13]): inactive
Activity (Nucleic Acid [14]): 90.9%
Activity (Nucleic Acid [15]): 2.46%
Activity (Nucleic Acid [16]): 86.6%
Activity (Nucleic Acid [17]): 68%
Activity (Nucleic Acid [18]): 94.9%
Activity (Nucleic Acid [19]): 13.7%
Activity (Nucleic Acid [20]): 15.2%
Activity (Nucleic Acid [21]): 21.1%
Activity (Nucleic Acid [22]): 78.9%
Activity (Nucleic Acid [23]): 39.8%
Activity (Nucleic Acid [24]): 5.08%
Activity (Nucleic Acid [25]): 72.3%
Activity (Nucleic Acid [26]): 67.8%
Activity (Nucleic Acid [27]): 97.2%
Activity (Nucleic Acid [28]): 45%
Activity (Nucleic Acid [29]): 48.9%
Activity (Nucleic Acid [30]): 84.7%
Activity (Nucleic Acid [31]): 84.7%
Activity (Nucleic Acid [32]): 7.36%
Activity (Nucleic Acid [33]): 78.2%
Activity (Nucleic Acid [34]): 73.4%
Activity (Nucleic Acid [35]): 26%
Activity (Nucleic Acid [36]): 62%
Activity (Nucleic Acid [37]): 93.9%
Activity (Nucleic Acid [38]): 90.1%
Compound: Cl.Cl.NNC1=NCC(O)CN1 (stereo not given)
Activity (HeLa): 0%
Activity (HL-60): 2%
